In patent US20030017976A1, “Therapeutic properties of liposome-encapsulated immunomodulators” (priority 1998, published 2003):

Key:
[1] = system: peritoneal exudate macrophages (PEM); test: Nitrite (NO) production by mouse peritoneal exudate macrophages; assay type: cell-based; conditions: PEM with 50 umol/well MLV (0.1 mg JBT3002/300 μM phospholipid) in the presence of 2 mM NMA
Procedure: Peritoneal exudate macrophages (PEM) were collected by peritoneal lavage from mice given an intraperitoneal injection of 2.0 ml of thioglycollate broth (Baltimore Biological Laboratory, Cockeysville, Md.) 4 days before harvest (Dong Z, O'Brian C A, et al. J Leukoc Biol (1993) 53:53-60; Xie K, Huang S, et al. Cancer Res (1995) 55:3123-31). The PEM were washed in Ca^+2- an Mg^2+-free HBSS and resuspended in serum-free medium: 1×10^5 cells were plated into each 38-mm^2 well of 96-2311 culture plates (Falcon Plastics, Oxnard, Calif.). After a 90-min incubation, the nonadherent cells were removed by washing with medium. More than 98% of the adherent cell populations were macrophages according to morphology and phagocytic criteria (Saiki I, et al. J Immunol (1985) 135:684-8). […] After treatment, the cultures were washed and macrophage-mediated cytotoxicity against different tumor targets was determined. […]
Nitrite accumulation in the culture supernatant was measured in a colorimetric assay as described previously (Ding A E, et al. J Immunol (1988) 141:2407-12). […] The mixtures were incubated 10 min with shaking, and A540 was measured with the use of a microplate reader (Model 3550; Bio-Rad Corp., San Francisco, Calif.). The concentration of nitrite was determined by comparing it with a standard solution of sodium nitrite in medium.

[2] = system: tumor cells; test: Macrophage-mediated tumor cytotoxicity, target cells not named; assay type: cell-based; conditions: PEM with 50 umol/well MLV (0.1 mg JBT3002/300 μM phospholipid) in the presence of 2 mM NMA
Procedure: Cytotoxicity was assayed by measuring release of radioactivity from target cell DNA as described previously (Dong Z, et al. J Exp Med (1993) 177:1071-7). Briefly, tumor target cells in their exponential growth phase were incubated in medium containing 0.25 μCi/ml of [^3H]TdR (sp. Act. 2 Ci/mmol) (ICN Biomedicals, Inc., Irvine, Calif.) for 24 h. The cells were washed three times with HBSS to remove unbound radioactivity and then harvested by trypsinization (0.25% trypsin in 0.02% EDTA), washed, and resuspended in medium. Cells were plated (at 1×10^4/well) into wells containing control or test macrophages to achieve an E/T cell ratio of 10:1. At this density, macrophages incubated in medium (control) were not cytotoxic to neoplastic cells (Weinstein SL, et al. Proc Natl Acad Sci USA (1991) 88:4148-52; Dong Z, et al. JLeukoc Biol (1993) 53:53-60). […] The lysate was harvested with harvester 96 (Tomtec, Orange, Conn.) and counted for residual radioactivity in a liquid scintillation counter. Macrophage-mediated cytotoxicity was calculated as follows: […]
Efficient activation of macrophages by LPS requires priming by IFN-γ (Saiki I, et al. J Immunol (1985) 135:684-8). […] Tumor cytotoxicity was measured 72 h after the addition of radiolabeled tumor cells to the activated macrophages. […]

[3] = system: K-1735 M2 cells; test: Macrophage-mediated cytotoxicity against K-1735 M2 cells; assay type: cell-based, mouse; conditions: PEM activated by JBT3002
[4] = system: PEM (TNF-α, IL-1α, IL-6, NO); test: Cytokine and nitrite production by PEM (ELISA, Griess); assay type: cell-based, mouse; conditions: PEM treated with LPS or MLV-JBT3002, genistein 100 μM, PD-98059 10 μM, calphostin-C 250 nM
Procedure: Peritoneal exudate macrophages (PEM) were collected by peritoneal lavage from mice given an intraperitoneal injection of 1.5 ml of thioglycollate broth (Baltimore Biological Laboratory, Cockeysville, Md.) 4 days before harvest.(Saiki I, et al. J Immunol (1985) 135:684 688; Dong Z, et a.l J Leukoc Biol (1993) 53:53-60; Dong Z, J et al. J Exp Med (1993) 177:1071-1077) The PEM were washed in CA^2+- and MG^2+-free HBSS and resuspended in serum-free medium: 1×10^5 cells were plated into each 38-mm^2 well of 96-well culture plates (Falcon Plastics, Oxnard, Calif.). After a 90-minute incubation, the nonadherent cells were removed by washing them with medium. More than 98% of the adherent cell populations were macrophages according to morphology and phagocytic criteria. (Saiki I, et al. J Immunol (1985) 135:684 688)
PEM in 96-well plates at a density of 10^5 cells/well/200 μl of medium were treated as indicated in Results. The culture supernatants were harvested and used immediately for the cytokine assays or stored at −70° C. For cell lysates, supernatants were removed and macrophages were frozen-thawed in fresh medium. Specific cytokines in the supernatants or cell lysates (diluted at 1:5 or 1:10) were measured by ELISA kits according to manufacturer's instructions.
The nitrite concentration in culture supernatants was determined by a microplate assay as described previously. Briefly, 50-μl samples harvested from PEM-conditioned medium were treated with an equal volume of Griess reagent (1% sulfanilamide, 0.1% naphthylene diamine dihydrochloride, and 2.5% H3PO4) at room temperature for 10 minutes. The absorbance at 540 nm was monitored with a microplate reader. The nitrite concentration was determined using sodium nitrite as a standard.

Structure (SMILES) | NO [1] [µM] | tumor cytotoxicity [2] [%] | minimal inhibition dose [3] [µM] | effect of kinase inhibitor on production of NO [4] | effect of kinase inhibitor on production of TNF-α ([4]; H-89)
CNC(=N)NCCC[C@H](N)C(=O)O [NMA, N^G-monomethyl-L-arginine] | 1.6 | 1.3 |  |  | 
O=c1c(-c2ccc(O)cc2)coc2cc(O)cc(O)c12 [genistein, Genistein] |  |  | 30 to 40 | significantly inhibited | significantly inhibited
